In US20260250318A1, “COMPOSITIONS AND METHODS FOR CROSSING THE BLOOD BRAIN BARRIER” (VOYAGER THERAPEUTICS, INC., priority 2022, published 2026):

Test system: brains, heart, liver, muscle, and DRG of the NHPs
Assay: Maturation of TTM-001 and TTM-002 capsids, NGS enrichment in NHP tissues
Format: in vivo
Outline: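 Variants carry mutations within and flanking the loop IV peptide insert: positions 450–466 were triplet-randomized, while positions 449–466 received low-frequency point mutations. The combined pool went into two NHPs, and each peptide was scored by NGS enrichment ratio against AAV9.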

[1] = NHP DRG, NGS, relative to AAV9 control
[2] = NHP brain, NGS, relative to AAV9 control
[3] = NHP heart, NGS, relative to AAV9 control
[4] = NHP liver DNA, NGS, relative to AAV9 control
[5] = NHP liver RNA, NGS, TTM-001 and TTM-002 matured AAV capsid variants, relative to AAV9 control
[6] = NHP muscle, NGS, relative to AAV9 control
[7] = NGS fold-enrichment, DRG, NHP, relative to AAV9
[8] = NGS fold-enrichment, brain, NHP, relative to AAV9
[9] = NGS fold-enrichment, heart, NHP, relative to AAV9
[10] = NGS fold-enrichment, liver DNA, NHP, relative to AAV9
[11] = NGS fold-enrichment, liver RNA, NHP, relative to AAV9
[12] = NGS fold-enrichment, muscle, NHP, relative to AAV9

Row | Sequence | Fold Enrichment relative to AAV9, DRG (NHP) [1] [fold] | Fold Enrichment relative to AAV9, Brain (NHP) [2] [fold] | Fold Enrichment relative to AAV9, Heart (NHP) [3] [fold] | Fold Enrichment relative to AAV9, Liver DNA (NHP) [4] [fold] | Fold Enrichment relative to AAV9, Liver RNA (NHP) [5] [fold] | Fold Enrichment relative to AAV9, Muscle (NHP) [6] [fold] | Fold Enrichment relative to AAV9, DRG (NHP) [7] [fold] | Fold Enrichment relative to AAV9, Brain (NHP) [8] [fold] | Fold Enrichment relative to AAV9, Heart (NHP) [9] [fold] | Fold Enrichment relative to AAV9, Liver DNA (NHP) [10] [fold] | Fold Enrichment relative to AAV9, Liver RNA (NHP) [11] [fold] | Fold Enrichment relative to AAV9, Muscle (NHP) [12] [fold]
1 | KTMQRSGSPHSKAQNQQT | 0.000 | 0.000 | 0.000 | 3.159 | 18.020 | 0.000 | – | – | – | – | – | –
2 | KTINGSGSPHCRVQNQQT | 0.000 | 0.000 | 0.000 | 1.203 | 31.043 | 0.000 | – | – | – | – | – | –
3 | KTINGSGSPHPFVQNQQT | 0.000 | 0.000 | 0.000 | 1.286 | 12.091 | 0.000 | – | – | – | – | – | –
4 | KTINGSGSPHSKARISQT | 0.000 | 0.000 | 0.000 | 1.565 | 12.142 | 0.000 | – | – | – | – | – | –
5 | KTTGRSGSPHSKAQNQQT | – | – | – | – | – | – | 0.000 | 0.000 | 0.000 | 0.126 | 10.863 | 0.000
6 | KTINLGCSPHSKAQNQQT | 0.000 | 0.000 | 0.000 | 0.654 | 12.564 | 0.000 | – | – | – | – | – | –
7 | KTINGSGSPHSKRKRQQT | 0.000 | 0.000 | 0.000 | 3.027 | 11.215 | 0.000 | – | – | – | – | – | –
8 | KYIVGSGSPHSKAQNQQT (peptide inserted in AAV capsid) | 0.000 | 0.000 | 0.000 | 4.480 | 94.721 | 0.000 | – | – | – | – | – | –
9 | KTINGSGSPHRCCQNQQT | 0.000 | 0.000 | 0.000 | 2.213 | 19.084 | 0.000 | – | – | – | – | – | –
10 | KTINGSGSPHSKAKGWQT | – | – | – | – | – | – | 0.000 | 0.000 | 0.000 | 1.827 | 10.450 | 0.000
11 | KTINGSGSPHSKMICQQT | 0.000 | 0.000 | 0.000 | 0.144 | 21.036 | 0.000 | – | – | – | – | – | –
12 | KTINGSGSPHSCPQNQQT | 0.000 | 0.000 | 0.000 | 1.776 | 16.701 | 0.000 | – | – | – | – | – | –
13 | KTINGSGSPHSLAWNQQT | 0.000 | 0.000 | 0.000 | 4.746 | 29.015 | 0.000 | – | – | – | – | – | –
14 | KTINGSGSPHSFRPNQQT | 0.000 | 0.000 | 0.000 | 9.191 | 44.801 | 0.000 | – | – | – | – | – | –
15 | KTINGSGSPHSKAQYSRT | 0.000 | 0.000 | 0.000 | 0.956 | 60.119 | 0.000 | – | – | – | – | – | –
16 | KTINGSGSPHSKRVVQQT | 0.000 | 0.000 | 0.000 | 1.639 | 11.094 | 0.000 | – | – | – | – | – | –
17 | KTINGSGSPHSRFWNQQT | 0.000 | 0.000 | 0.000 | 6.955 | 51.225 | 0.000 | – | – | – | – | – | –
18 | KPFLGSGSPHSKAQNQQT | – | – | – | – | – | – | 0.000 | 0.000 | 0.000 | 1.328 | 10.318 | 0.000
19 | KTINGSGSPHVYYQNQQT | 0.000 | 0.944 | 0.246 | 2.173 | 53.294 | 5.268 | – | – | – | – | – | –
20 | KTINKCLSPHSKAQNQQT | 0.000 | 0.000 | 0.000 | 5.097 | 30.667 | 0.000 | – | – | – | – | – | –
21 | KTINGSGSPHSKIRGQQT | 0.000 | 0.000 | 0.000 | 1.584 | 18.150 | 0.000 | – | – | – | – | – | –
22 | KTINGSGSPHSKIRRQQT | 0.000 | 0.000 | 0.000 | 1.388 | 53.528 | 0.000 | – | – | – | – | – | –
23 | KTINGSGSPHFYRQNQQT | 0.000 | 0.000 | 0.000 | 9.342 | 31.724 | 0.000 | – | – | – | – | – | –
